Laboratory results taken from US20240043403A1, “HETEROARYL CARBOXAMIDE COMPOUND” (Astellas Pharma Inc., priority 2020, published 2024).
Counter-ions that a name gives are not always drawn.

The compounds below were run against human recombinant DGK ξ (Homo sapiens (Human), UniProt Q13574) (assay: Evaluation of DGK ξ inhibitory effect (ADP-Glo Kinase Assay)). Details: ADP-Glo luminescence.
Format: biochemical
Procedure: Test Example 1. Evaluation of DGK ξ Inhibitory Effect
The inhibitory effect of a test compound on human recombinant DGK ξ (Cama Biosciences, Inc., 12-410-20N) was examined by the following method in which detection is performed with ADP-Glo™ Kinase Assay (Promega Corporation).
To a 384-well plate (Greiner Bio-One Co., Ltd.), 3 μL of a DGK ξ enzyme dissolved in an assay buffer (40 mM Tris-HCl pH 7.5, 10 mM MgCl2, 1 mM dithiothreitol (DTT) and 0.1 mg/mL bovine serum albumin (BSA)) (90 ng/mL) was added, and 3 μL of the test compound diluted with the same assay buffer was added so that an intended final concentration was obtained. The mixture was left standing at room temperature for 15 minutes, 3 μL of a substrate (150 μM 1-oleoyl-2-acetyl-sn-glycerol (Sigma-Aldrich Co. LLC), 480 μM phosphatidylserine (Avanti, Inc.) and 150 μM UltraPure-ATP (attached to ADP-Glo)) was then added, and the mixture was left standing at room temperature for 30 minutes to react. Thereafter, 3 μL of an ADP-Glo Reagent was added, and the mixture was left standing at room temperature for 40 minutes to stop the enzyme reaction. Further, 6 μL of a Kinase-Detection Reagent was added, the mixture was left standing at room temperature for 30 minutes, and the luminescence was then measured using ARVO X3 (PerkinElmer, Inc.). The half maximal inhibitory concentration (IC50) was calculated by Sigmoid-Emax model non-linear regression analysis, where the signal value in solvent treatment was set to 0% inhibition and the signal value without addition of the DGK ξ enzyme was set to 100% inhibition. […] In the table. Ex represents the number of each Example described below.

Chain of human recombinant DGK ξ (Q13574 whole entry): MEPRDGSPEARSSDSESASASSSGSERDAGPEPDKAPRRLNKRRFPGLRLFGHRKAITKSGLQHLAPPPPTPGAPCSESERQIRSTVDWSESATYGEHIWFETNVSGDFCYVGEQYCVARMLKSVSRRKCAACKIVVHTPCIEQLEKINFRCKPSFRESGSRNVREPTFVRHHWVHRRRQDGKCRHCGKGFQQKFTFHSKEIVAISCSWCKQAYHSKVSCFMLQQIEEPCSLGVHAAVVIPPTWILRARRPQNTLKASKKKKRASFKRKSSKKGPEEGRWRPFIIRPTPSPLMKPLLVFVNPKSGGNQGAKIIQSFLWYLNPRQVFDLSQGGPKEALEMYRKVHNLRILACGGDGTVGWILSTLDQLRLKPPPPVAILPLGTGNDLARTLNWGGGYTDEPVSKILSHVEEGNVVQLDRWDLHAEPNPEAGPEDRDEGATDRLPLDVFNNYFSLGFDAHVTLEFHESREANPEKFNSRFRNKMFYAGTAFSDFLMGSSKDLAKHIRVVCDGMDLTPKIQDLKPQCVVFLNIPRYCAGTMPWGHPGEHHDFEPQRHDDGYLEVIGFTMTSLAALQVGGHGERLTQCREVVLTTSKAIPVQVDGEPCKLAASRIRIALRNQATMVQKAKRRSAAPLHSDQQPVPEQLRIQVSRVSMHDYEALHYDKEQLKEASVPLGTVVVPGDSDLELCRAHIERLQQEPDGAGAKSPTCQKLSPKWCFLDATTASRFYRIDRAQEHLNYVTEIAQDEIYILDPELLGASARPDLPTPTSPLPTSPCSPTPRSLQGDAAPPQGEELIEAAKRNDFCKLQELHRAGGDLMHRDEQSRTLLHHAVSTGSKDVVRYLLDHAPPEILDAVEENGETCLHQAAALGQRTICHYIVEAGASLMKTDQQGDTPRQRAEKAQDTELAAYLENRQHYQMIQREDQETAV

IC50 | Compound
28 nM | NC[C@@H]1CCCN(c2c(NC(=O)c3ccn(CC(F)F)n3)ccc(Oc3ccccc3)c2C(F)(F)F)C1 [Example 2]
150 nM | NC[C@@H]1CCCN(c2c(NC(=O)c3ccn(C(F)F)n3)ccc(Oc3ccccc3)c2C(F)(F)F)C1 [Example 3]
170 nM | NC[C@@H]1CCCN(c2c(NC(=O)c3ccn(CC(F)F)n3)ccc(OC3CCCC3)c2C(F)(F)F)C1 [Example 4]
330 nM | NC[C@@H]1CCCN(c2c(NC(=O)c3ccn(CC(F)F)n3)ccc(OC3CC3)c2C(F)(F)F)C1 [Example 5]
57 nM | NC[C@@H]1CCCN(c2c(NC(=O)c3ccn(CC(F)F)n3)ccc(Oc3ccccc3F)c2F)C1 [Example 6]
88 nM | NC[C@@H]1CCCN(c2c(NC(=O)c3ccn(CC(F)F)n3)ccc(Oc3ccc(F)cc3)c2C(F)(F)F)C1 [Example 8]
9.3 nM | NC[C@@H]1CCCN(c2c(NC(=O)c3ccn(CC(F)F)n3)ccc(Oc3ccccc3Cl)c2C(F)(F)F)C1 [Example 9]
93 nM | O=C(Nc1ccc(Oc2ccccc2F)c(C(F)(F)F)c1N1CCC[C@@H](CNC2CC2)C1)c1ccn(CC(F)F)n1 [Example 10]
35 nM | NC[C@@H]1CCCN(c2c(NC(=O)c3cccn(CC(F)F)c3=O)ccc(Oc3ccccc3F)c2C(F)(F)F)C1 [Example 11]
150 nM | CNC[C@H]1CN(c2c(NC(=O)c3ccn(CC(F)F)n3)ccc(C3CCCC3)c2C(F)(F)F)CCN1C [Example 14]
99 nM | CN1CCN(c2c(NC(=O)c3cccn(CC(F)F)c3=O)ccc(Oc3ccccc3Cl)c2C(F)(F)F)C[C@@H]1CN [Example 15]
73 nM | CN1CCN(c2c(NC(=O)c3cccn(CC(F)F)c3=O)ccc(Oc3ccccc3F)c2C(F)(F)F)C[C@@H]1CN [Example 16]
190 nM | CN1CCN(c2c(NC(=O)c3ccn(CC(F)F)n3)ccc(OC3CCC3)c2C(F)(F)F)C[C@@H]1CN [Example 17]
130 nM | CN1CCN(c2c(NC(=O)c3ccn(CC(F)F)n3)ccc(Oc3ccc(F)cc3F)c2C(F)(F)F)C[C@@H]1CN [Example 18]
960 nM | CN1CCN(c2c(NC(=O)c3ccn(CC(F)F)n3)ccc(Oc3ccccc3F)c2C(F)(F)F)C[C@H]1CN [Example 19]
1100 nM | CN1CCN(c2c(NC(=O)c3cccn(CC(F)F)c3=O)ccc(Oc3ccccc3F)c2C(F)(F)F)C[C@H]1CN [Example 21]
18 nM | CNC[C@H]1CN(c2c(NC(=O)c3coc(-c4ccnnc4)n3)ccc(Oc3ccccc3F)c2C(F)(F)F)CCN1C [Example 22, N-[4-(2-fluorophenoxy)-2-{(3S)-4-methyl-3-[(methylamino)methyl]piperazin-yl}-3-(trifluoromethyl)phenyl]-2-(pyridazin-4-yl)-1,3-oxazole-4-carboxamide trihydrochloride]
63 nM | CNC[C@H]1CN(c2c(NC(=O)c3ccn(CC(F)F)n3)ccc(Oc3ccccc3F)c2C(F)(F)F)CCN1C [Example 23]
36 nM | CNC[C@H]1CN(c2c(NC(=O)c3ccn(CC(F)F)n3)ccc(Oc3ccccc3Cl)c2C(F)(F)F)CCN1C [Example 24]
73 nM | CNC[C@H]1CN(c2c(NC(=O)c3ccn(CC(F)F)n3)ccc(Oc3ccccc3F)c2F)CCN1C [Example 25]

IC50 | Compound
19 nM | CNC[C@H]1CN(c2c(NC(=O)c3ccn(CC(F)F)n3)ccc(Oc3ccccc3Cl)c2Cl)CCN1C [Example 26]
37 nM | CNC[C@H]1CN(c2c(NC(=O)c3ccn(CC(F)F)n3)ccc(Oc3ccccc3F)c2Cl)CCN1C [Example 27]
240 nM | CN1CCN(c2c(NC(=O)c3ccn(CC(F)F)n3)ccc(Oc3ccc(F)cc3)c2C(F)(F)F)C[C@@H]1CN [Example 28]
23 nM | NC[C@@H]1CCCN(c2c(NC(=O)c3ccn(-c4ccnnc4)n3)ccc(Oc3ccccc3)c2C(F)(F)F)C1 [Example 31]
100 nM | N#Cc1ccccc1Oc1ccc(NC(=O)c2ccn(CC(F)F)n2)c(N2CCC[C@@H](CN)C2)c1C(F)(F)F [Example 32]
4.8 nM | NC[C@@H]1CCCN(c2c(NC(=O)c3ccn(-c4ccnnc4)n3)ccc(Oc3ccccc3Cl)c2C(F)(F)F)C1 [Example 33]
3.1 nM | NC[C@@H]1CCCN(c2c(NC(=O)c3ccn(-c4ccnnc4)n3)ccc(Oc3ccccc3F)c2C(F)(F)F)C1 [Example 34]
45 nM | Cc1cc(C(=O)Nc2ccc(Oc3ccccc3)c(C(F)(F)F)c2N2CCC[C@@H](CN)C2)nn1-c1ccnnc1 [Example 35]
55 nM | O=C(Nc1ccc(Oc2ccccc2F)c(C(F)(F)F)c1N1CCC[C@@H](CNC2CC2)C1)c1ccn(-c2ccnnc2)n1 [Example 36]
23 nM | Cc1cc(C(=O)Nc2ccc(Oc3ccccc3F)c(C(F)(F)F)c2N2CCC[C@@H](CN)C2)nn1-c1ccnnc1 [Example 37]
4.1 nM | CN1CCN(c2c(NC(=O)c3ccn(-c4ccnnc4)n3)ccc(Oc3ccccc3F)c2C(F)(F)F)C[C@@H]1CN [Example 38]
39 nM | Cc1cn(-c2ccnnc2)nc1C(=O)Nc1ccc(Oc2ccccc2F)c(C(F)(F)F)c1N1CCC[C@@H](CN)C1 [Example 39]
5.2 nM | CN1CCN(c2c(NC(=O)c3ccn(-c4ccnnc4)n3)ccc(OC3CCCC3)c2C(F)(F)F)C[C@@H]1CN [Example 40]
5 nM | CN1CCN(c2c(NC(=O)c3coc(-c4ccnnc4)n3)ccc(OC3CCCC3)c2C(F)(F)F)C[C@@H]1CN [Example 41]
150 nM | NC[C@@H]1CCCN(c2c(NC(=O)c3coc(-c4ccnnc4)n3)ccc(-c3ccccc3F)c2C(F)(F)F)C1 [Example 42]
30 nM | NC[C@@H]1CCCN(c2c(NC(=O)c3ccn(-c4ccnnc4)n3)ccc(-c3ccccc3F)c2C(F)(F)F)C1 [Example 43]
8.6 nM | CNC[C@H]1CN(c2c(NC(=O)c3ccn(-c4ccnnc4)n3)ccc(OC3CCCC3)c2C(F)(F)F)CCN1C [Example 44]
3.1 nM | CN1CCN(c2c(NC(=O)c3ccn(-c4ccnnc4)n3)ccc(Oc3ccccc3Cl)c2C(F)(F)F)C[C@@H]1CN [Example 46]
7.8 nM | CNC[C@H]1CN(c2c(NC(=O)c3coc(-c4ccnnc4)n3)ccc(C3CCCC3)c2C(F)(F)F)CCN1C [Example 49]
55 nM | CNC[C@H]1CN(c2c(NC(=O)c3ccn(-c4ccnnc4)n3)ccc(C3=CCOCC3)c2C(F)(F)F)CCN1C [Example 50]

IC50 | Compound
17 nM | CN1CCN(c2c(NC(=O)c3ccn(-c4ccnnc4)n3)ccc(OC3CCC3)c2C(F)(F)F)C[C@@H]1CN [Example 51]
46 nM | CN1CCN(c2c(NC(=O)c3ccn(-c4ccnnc4)n3)ccc(Oc3ccc(F)cc3)c2C(F)(F)F)C[C@@H]1CN [Example 52]
29 nM | CN1CCN(c2c(NC(=O)c3coc(-c4ccnnc4)n3)ccc(Oc3ccc(F)cc3)c2C(F)(F)F)C[C@@H]1CN [Example 53]
12 nM | CN1CCN(c2c(NC(=O)c3ccn(-c4ccnnc4)n3)ccc(Oc3ccccc3F)c2C(F)(F)F)C[C@H]1CN [Example 54]
12 nM | CN1CCN(c2c(NC(=O)c3coc(-c4ccnnc4)n3)ccc(Oc3ccccc3F)c2C(F)(F)F)C[C@H]1CN [Example 55]
0.89 nM | CN1CCN(c2c(NC(=O)c3ccn(-c4ccnnc4)n3)ccc(Oc3ccccc3Cl)c2Cl)C[C@@H]1CN [Example 56]
0.42 nM | CN1CCN(c2c(NC(=O)c3coc(-c4ccnnc4)n3)ccc(Oc3ccccc3Cl)c2Cl)C[C@@H]1CN [Example 57]
21 nM | NCC1(F)CCCN(c2c(NC(=O)c3ccn(-c4ccnnc4)n3)ccc(Oc3ccccc3F)c2C(F)(F)F)C1 (centres unmarked) [Example 58]
11 nM | CNC[C@H]1CN(c2c(NC(=O)c3ccn(-c4ccnnc4)n3)ccc(-c3ccccc3F)c2C(F)(F)F)CCN1C [Example 59]
27 nM | CNC[C@H]1CN(c2c(NC(=O)c3coc(-c4ccnnc4)n3)ccc(-c3ccccc3F)c2C(F)(F)F)CCN1C [Example 60]
46 nM | NC[C@@H]1CCCN(c2c(NC(=O)c3ccn(-c4ccnnc4)n3)ccc(Oc3ccccn3)c2C(F)(F)F)C1 [Example 61]
6.9 nM | Cc1ccccc1Oc1ccc(NC(=O)c2ccn(-c3ccnnc3)n2)c(N2CCC[C@@H](CN)C2)c1C(F)(F)F [Example 62]
70 nM | NC[C@@H]1CCCN(c2c(NC(=O)c3ccn(-c4ccnnc4)n3)ccc(OC3CC3)c2-c2ccccc2)C1 [Example 63]
13 nM | COCCNC[C@@H]1CCCN(c2c(NC(=O)c3ccn(-c4ccnnc4)n3)ccc(Oc3ccccc3F)c2C(F)(F)F)C1 [Example 64]
22 nM | NCCOc1cccc(-c2c(NC(=O)c3coc(-c4ccnnc4)n3)ccc(OC3CC3)c2C(F)(F)F)c1 [Example 65]
180 nM | CNCCOc1cccc(-c2c(NC(=O)c3coc(-c4ccnnc4)n3)ccc(OC3CC3)c2C(F)(F)F)c1 [Example 66]
35 nM | NCCOc1cc(-c2c(NC(=O)c3coc(-c4ccnnc4)n3)ccc(OC3CCC3)c2C(F)(F)F)ccn1 [Example 67]
24 nM | NCCOc1cc(-c2c(NC(=O)c3coc(-c4ccnnc4)n3)ccc(OC3CC3)c2C(F)(F)F)ccn1 [Example 68]
60 nM | CNCCOc1cc(-c2c(NC(=O)c3coc(-c4ccnnc4)n3)ccc(OC3CCC3)c2C(F)(F)F)ccn1 [Example 69]
